Reference: ChEMBL document CHEMBL2417474, “Synthesis, antiproliferative and anti-inflammatory activities of some novel 6-aryl-2-(p-(methanesulfonyl)phenyl)-4,5-dihydropyridazi-3(2H)-ones” (Eur J Med Chem, 2013)

Key:
[1] = tested on: CAKI-1; assay: Growth inhibition of human CAKI-1 cells assessed as cell growth at 10 uM after 48 hrs by sulforhodamine B assay; type: functional; conditions: CAKI-1, 48 h, read-out: Activity
[2] = tested on: SF-295; assay: Growth inhibition of human SF295 cells assessed as cell growth at 10 uM after 48 hrs by sulforhodamine B assay; type: functional; conditions: SF-295, 48 h, read-out: Activity

SMILES | growth at 10 µM [1] | growth at 10 µM [2]
Cc1cc(O)ccc1C1=NN(c2ccc(S(C)(=O)=O)cc2)C(=O)CC1 | 25.4% | 32.1%
CCc1ccc(C2=NN(c3ccc(S(C)(=O)=O)cc3)C(=O)CC2)cc1 | 16.6% | 9.24%
